Calls of active or inactive are those of the source. The rule behind the calls is not given here.
Experiment: mitochondrial fusion inhibitors, confirmation, cell-based, chemical genetic, wild-type and mutant (AID 1361)
Conditions: Cell-based mitochondrial fusion phenotype, imaging
[1] = mutant cells, measured here: mutant cell line IC50

| Compound | IC50 (WT cells) | IC50 [1] |
| --- | --- | --- |
| O=C(Nc1ccc(C(F)(F)F)cc1)c1cc(S(=O)(=O)NCC2COc3ccccc3O2)ccc1F (stereo unspecified) | 15.2 µM | > 25 µM |
| O=C(C1=C[C@H](c2csc3ccccc23)C[C@H](OCc2ccc(CO)cc2)O1)N1CCN(Cc2ccccc2)CC1 | 4.03 µM | 10.5 µM |
| CC(C)(C)n1nnnc1C(c1cccs1)N1CCCC2(CCCCC2)C1 (stereo unspecified) | 4.86 µM | > 25 µM |
| O=C(COC(=O)c1ccc([N+](=O)[O-])s1)Nc1ccccc1 | 17.7 µM | > 25 µM |
| CCC1Oc2ccc(C)cc2N(CC(=O)N(Cc2ccc(C)o2)C2CCCC2)C1=O (stereo unspecified) | > 25 µM (inactive) | > 25 µM |
| CCC1CCCCN1c1cc(C)nc2cc(-c3cccc(C)c3)nn12 (stereo unspecified) | 13.1 µM | > 25 µM |
| CCC(C(=O)OCC(=O)Nc1ccc(SC(F)F)cc1)c1ccccc1 (stereo unspecified) | 17.6 µM | > 25 µM |
| Cc1[nH]c2ccc(F)cc2c1CCN(Cc1ccco1)C(=S)NC(C)(C)C | 12.5 µM | > 25 µM |
| COCCCNC(=O)CS(=O)(=O)Cc1nc(-c2cccc(OC)c2)oc1C | > 25 µM (inactive) | > 25 µM |
| CCCNC(=O)c1ccccc1NC(=O)CSCc1ccc(OC)cc1 | > 25 µM (inactive) | > 25 µM |
| COc1ccccc1-c1nnc(SCC(=O)NCc2c(C)c(Cl)cc(C(C)C)c2O)o1 | 9.66 µM | > 25 µM |
| COc1ccc(C(=NNc2ccccc2C(=O)O)c2ccc(OC)cc2)cc1 | 17.8 µM | > 25 µM |
| COc1cccc(OC)c1OCCCCN1CCCC1 | > 25 µM (inactive) | > 25 µM |
| O=C(NCc1ccccc1Cl)c1cnccn1 | > 25 µM (inactive) | > 25 µM |
| COC(=O)CNC(c1ccccc1)c1cc(Cl)ccc1NC(=O)c1cccc(Cl)c1 (stereo unspecified) | 10.4 µM | > 25 µM |
| CCN(Cc1ccccc1)C(c1cccs1)c1nnnn1C1CCCCC1 (stereo unspecified) | 8.92 µM | > 25 µM |
| Cc1ccnc(NS(=O)(=O)c2ccc(N=CC3=C(O)CC(C)(C)CC3=O)cc2)n1 | > 25 µM (inactive) | > 25 µM |
| CCOP(=O)(OCC)C(Nc1cccc(C(F)(F)F)c1)c1ccc(Br)cc1 (stereo unspecified) | 16.3 µM | > 25 µM |
| O=C(c1ccc(-c2nnc(-c3ccccc3)o2)cc1)N1CCCCCC1 | > 25 µM (inactive) | > 25 µM |
| Cc1ccc(C2=CC(C)(c3ccc(C)cc3)Nc3nc(C(F)(F)F)nn32)cc1 (stereo unspecified) | 7.63 µM | > 25 µM |
| O=C(CNC(=S)N(Cc1ccccc1)Cc1ccccc1F)NCCc1ccccc1 | 20.1 µM | > 25 µM |

| Compound | IC50 (WT cells) | IC50 [1] |
| --- | --- | --- |
| C=CCn1c(C)c(C(C)=O)c(N2CCN(C(c3ccccc3)c3ccccc3)CC2)nc1=S | 13.3 µM | > 25 µM |
| CCCC[n+]1c(-c2ccc(Cl)cc2Cl)csc1Nc1ccccc1 | 6.52 µM | > 25 µM |
| CCc1ccc2ncc(S(=O)(=O)c3ccc(C)c(C)c3)c(N3CCCC3)c2c1 | 14.6 µM | > 25 µM |
| COc1cc(C(=O)OC2CC3CCC2(C)C3(C)C)ccc1OC(C)=O (stereo unspecified) | 20 µM | > 25 µM |
| Cc1nc2ccc(NC(=O)c3nn(CC(C)C)c(=O)c4ccccc34)cc2s1 | > 25 µM (inactive) | > 25 µM |
| COc1ccc(-c2cn[nH]c2-c2ccc(OCc3ccc([N+](=O)[O-])cc3)cc2O)cc1 | 10 µM | > 25 µM |
| C=CCn1c(COc2ccccc2-c2ccccc2)nnc1SCC(=O)NC(=O)NCc1ccco1 | > 25 µM (inactive) | > 25 µM |
| Cc1ccc(C)c(NC(=O)c2ccccc2C(=O)c2ccccc2)c1 | 18.2 µM | > 25 µM |
| COc1ccccc1/C=C\C=N\n1c(-c2ccc(Cl)cc2Cl)n[nH]c1=S | 9.01 µM | > 25 µM |
| CCc1cccc(CC)c1NC(=S)NCCc1c(C)[nH]c2ccccc12 | 19.8 µM | > 25 µM |
| COc1ccc(NC(=O)CSc2ccc3c(c2)OCCO3)cc1OC | > 25 µM (inactive) | > 25 µM |
| Cc1cccc(-n2ncc3c(N4CC(C)CC(C)C4)ncnc32)c1 (stereo unspecified) | 14.6 µM | 20 µM |
| O=C(c1cc(-c2ccc(Cl)cc2)n(-c2ccc(Cl)c(Cl)c2)n1)N1CCOCC1 | 16.9 µM | > 25 µM |
| CN(C)S(=O)(=O)c1ccc(C(=O)Nc2nnc(-c3ccc4c(c3)CCCC4)o2)cc1 | 12.8 µM | 22 µM |
| O=C(N/N=C/c1c[nH]c2ccccc12)c1[nH]c2ccc(Br)cc2c1-c1ccccc1 | 3.58 µM | 14.9 µM |
| CCc1nnc(NC(=O)Nc2ccccc2OC)s1 | > 25 µM (inactive) | > 25 µM |
| O=C(C1CCCCC1)N(Cc1ccccc1)c1ccccn1 | > 25 µM (inactive) | > 25 µM |
| CC(C)C(c1nnnn1C(C)(C)C)N1CCC(Cc2ccccc2)CC1 (stereo unspecified) | 12.1 µM | > 25 µM |
| CNC(=S)N/N=C/c1cccc(OCc2ccccc2F)c1 | > 25 µM (inactive) | > 25 µM |
| N#CCCN(CCC#N)c1nnc(-c2ccccc2)s1 | > 25 µM (inactive) | > 25 µM |
| COC(=O)CN1C(c2cccc(Cl)c2)=Nc2ccc(Cl)cc2C1c1ccccc1 (stereo unspecified) | 7.73 µM | 24 µM |

| Compound | IC50 (WT cells) | IC50 [1] |
| --- | --- | --- |
| CCOc1ccc(NC(=O)CSc2nnc(-c3ccco3)n2C)cc1 | > 25 µM (inactive) | > 25 µM |
| Cc1cc(Br)ccc1NC(=O)CN1C(=O)C2C3CC(c4ccccc4)C(C3)C2C1=O (stereo unspecified) | 20.4 µM | > 25 µM |
| CCn1cc(C(=O)NCCc2ccccc2)c(=O)c2cc(F)c(N3CCN(C)CC3)cc21 | > 25 µM (inactive) | > 25 µM |
| CC(=O)c1ccc(-n2nnnc2SCC(=O)Nc2cccc(NC(=O)c3ccco3)c2)cc1 | > 25 µM (inactive) | > 25 µM |
| O=c1cc(N2CCCCC2)c(-c2ccccc2)nn1Cc1c(Cl)cccc1Cl | 5.39 µM | > 25 µM |
| CCCCC(=O)NC(c1ccc([N+](=O)[O-])cc1)c1c(O)ccc2ccccc12 (stereo unspecified) | > 25 µM (inactive) | > 25 µM |
| CC[n+]1c(SC)ccc2cc(OC)ccc21 | 11.5 µM | > 25 µM |
| O=C(COC(=O)c1ccccn1)Nc1cccc(Cl)c1Cl | > 25 µM (inactive) | > 25 µM |
| N#Cc1nc(-c2ccco2)oc1NCc1ccc(F)cc1 | > 25 µM (inactive) | > 25 µM |
| O=S(=O)(NCC(Nc1ccc(Cl)cc1)c1ccccc1)c1ccccc1 (stereo unspecified) | 13.9 µM | > 25 µM |
| Cc1ccc(Cl)cc1N1CCN(C(=O)c2cccc3c(=O)c(C)c(-c4ccccc4)oc23)CC1 | 9.75 µM | > 25 µM |
| O=C(CCn1nc(-c2ccccc2)c2ccccc2c1=O)NCC1CCCO1 (stereo unspecified) | > 25 µM (inactive) | > 25 µM |
| CC12CCC(O)CC1=CCC1C2CCC2(C)C1CCC21CCC(=O)O1 (stereo unspecified) | 15 µM | > 25 µM |
| C/C(=N\O)c1ccc2c3c([nH]c2c1)CCCC3 | > 25 µM (inactive) | > 25 µM |
| CC1CC2=C(NC(=S)NC2c2cccc(F)c2)/C(=C/c2cccc(F)c2)C1 (stereo unspecified) | 8.15 µM | > 25 µM |
| CC12CCC3C(CC=C4CC(O)CCC43C)C1C/C(=C\c1ccccc1F)C2=O (stereo unspecified) | 9.36 µM | > 25 µM |
| CC(C)(C)c1ccc(CN2N=C(/C=C/c3ccccc3)CCC2=O)cc1 | 11.3 µM | > 25 µM |
| Cc1cc(C)n(CC(O)Cn2c3ccc(Cl)cc3c3cc(Cl)ccc32)c(=O)n1 (stereo unspecified) | 16.6 µM | > 25 µM |
| Cc1ccc(S(=O)(=O)NCc2ccco2)c(C)c1C | > 25 µM (inactive) | > 25 µM |
| O=C(Nc1ccccc1)Nc1cc(OCC(F)(F)F)cc(OCC(F)(F)F)c1 | 16.3 µM | > 25 µM |
| COc1ccccc1C(=O)NC(=S)/C=C1/N(C)c2ccccc2C1(C)C | 10.8 µM | > 25 µM |

| Compound | IC50 (WT cells) | IC50 [1] |
| --- | --- | --- |
| CCOC(=O)N1CCN(CC(O)COC2CC(C)CCC2C(C)C)CC1 (stereo unspecified) | > 25 µM (inactive) | > 25 µM |
| Cc1ncsc1C(=O)N1N=C2/C(=C/c3ccccc3)CCCC2C1c1ccccc1 (stereo unspecified) | 10.3 µM | > 25 µM |
| CCC(C)(C)c1ccc(OCC(=O)N(C)C)c(C(C)(C)CC)c1 | 20.9 µM | > 25 µM |
| O=c1c2ccccc2[nH]c(=S)n1-c1ccc2c(c1)OCO2 | > 25 µM (inactive) | > 25 µM |
| O=C(CCSc1ccc(Cl)cc1)NC12CC3CC(CC(C3)C1)C2 | 13.1 µM | > 25 µM |
| Cc1cc(NC(=S)N(Cc2ccc(Br)cc2)Cc2ccc(C(=O)O)cc2)ccc1Cl | 16.3 µM | > 25 µM |
| Cc1ccc(-n2cc(-c3ccccc3)c3c(N4CCOCC4)ncnc32)cc1 | 21 µM | > 25 µM |
| Nc1[nH]n2c(=O)c3c(nc2c1N=Nc1ccccc1)CCCC3 | > 25 µM (inactive) | > 25 µM |
| O=C(N=Nc1c(O)n(Cc2ccccc2)c2ccccc12)c1cc2ccccc2cc1O | > 25 µM (inactive) | > 25 µM |
| Fc1ccc(Cn2nnnc2C(c2cccs2)N2CCCCCC2)cc1 (stereo unspecified) | > 25 µM (inactive) | > 25 µM |
| CCCCNC(=O)C1CCN(S(=O)(=O)c2cnc[nH]2)CC1 | > 25 µM (inactive) | > 25 µM |
| O=C(Nc1nnc(C2CC2)o1)c1ccc(S(=O)(=O)N2CCCc3ccccc32)cc1 | 13.5 µM | 20.8 µM |
| NC(=S)n1[nH]c(-c2ccc([N+](=O)[O-])cc2)c(N=Nc2ccc(Cl)cc2)c1=O | 8.34 µM | > 25 µM |
| O=C(COC(=O)CC(c1ccccc1)c1ccccc1)NCc1ccc(Cl)cc1 | 14.7 µM | > 25 µM |
| COc1ccc(CCN(Cc2cc3cc(C)cc(C)c3nc2Cl)C(=O)C2CC2)cc1 | 7.6 µM | > 25 µM |
| CCOC(=O)CSc1n[nH]c(-c2cccnc2)n1 | > 25 µM (inactive) | > 25 µM |
| CCCC[C@@H]1C[C@H]1[C@@H](NC(=O)c1cccs1)c1ccc(Cl)cc1 | 9.76 µM | > 25 µM |
| CCCCCCc1nc2ccccc2c(=O)n1NC(=O)c1c(O)c2cccc3c2n(c1=O)CCC3 | 10.5 µM | > 25 µM |
| CCOc1ccccc1NC(=O)NC(=O)N(C)S(=O)(=O)c1ccc(C)cc1 | > 25 µM (inactive) | > 25 µM |
| Cn1c(CN2CCCCC2)nc2cc(NC(=O)c3ccc(Cl)cc3)ccc21 | > 25 µM (inactive) | > 25 µM |

Source: PubChem BioAssay AID1361 (SRMLSC, 2008)
